Like-named read-outs stand apart in the source and are kept apart here.
Tests used:
[1] = tested on: A549 (lung cancer) cell line; test: MTT cytotoxicity assay, A549; settings: for inhibition: 48 h, triplicate, mean ± s.e.m.; for IC50: read-out: IC50 A549, MTT, 48 h drug treatment, A549
[2] = read-out: Cells viability (%) A549, 10 μM, 10 μM
[3] = read-out: Cells viability (%) A549, 30 μM, 30 μM

Compound | melting point | inhibition [1, 2] | inhibition [1, 3] | IC50 [1] | potency against A549 relative to sorafenib ([1]; from IC50 values)
Cc1nc2ccccc2c(=O)n1-c1cccc(N)c1 | 121 to 123 °C |  |  |  | 
Cc1ccc2nc(C)n([C@H]3CC[C@H](n4c(C)nc5ccc(C)cc5c4=O)CC3)c(=O)c2c1 [Compound 3b, 3,3′-((1R,4R)-Cyclohexane-1,4-diyl)bis(2,6-dimethylquinazolin-4(3H)-one)] | 280 to 281 °C | 39.3 ± 2.76% | 90.12 ± 0.25% | 15.7 µM | 
Cc1nc2ccc(F)cc2c(=O)n1[C@H]1CC[C@H](n2c(C)nc3ccc(F)cc3c2=O)CC1 [Compound 3d, 3,3'-((1R,4R)-Cyclohexane-1,4-diyl)bis(6-fluoro-2-methylquinazolin-4(3H)-one)] | 262 to 264 °C | 67.49 ± 0.27% | 90 ± 43% | 8.11 µM | 
Cc1nc2ccc([N+](=O)[O-])cc2c(=O)n1[C@H]1CC[C@H](n2c(C)nc3ccc([N+](=O)[O-])cc3c2=O)CC1 [Compound 3e, 3,3′-((1R,4R)-Cyclohexane-1,4-diyl)bis(2-methyl-6-nitroquinazolin-4(3H)-one)] | 301 to 304 °C | 77.1 ± 1.78% | 82.8 ± 1.64% | 5.34 µM | 
Cc1ccc2nc(C)n(Cc3ccc(Cn4c(C)nc5ccc(C)cc5c4=O)cc3)c(=O)c2c1 [Compound 4b, 3,3′-(1,4-Phenylenebis(methylene))bis(2,6-dimethylquinazolin-4(3H)-one)] | 285 to 287 °C | 76 ± 2.21% | 78.7 ± 1.76% | 6.79 µM | 
Cc1nc2ccc([N+](=O)[O-])cc2c(=O)n1Cc1ccc(Cn2c(C)nc3ccc([N+](=O)[O-])cc3c2=O)cc1 [Compound 4e, 3,3′-(1,4-Phenylenebis(methylene))bis(2-methyl-6-nitroquinazolin-4(3H)-one)] | 350 to 353 °C | 80.2 ± 2.1% | 87 ± 1.45% | 2.98 µM | 
Cc1nc2ccc(F)cc2c(=O)n1CCn1c(C)nc2ccc(F)cc2c1=O [Compound 5d, 3,3′-(Ethane-1,2-diyl)bis(6-fluoro-2-methylquinazolin-4(3H)-one)] | 219 to 221 °C | 54.49 ± 0.27% | 90 ± 43% | 7.95 µM | 
Cc1nc2ccc([N+](=O)[O-])cc2c(=O)n1CCn1c(C)nc2ccc([N+](=O)[O-])cc2c1=O [Compound 5e, 3,3′-(Ethane-1,2-diyl)bis(2-methyl-6-nitroquinazolin-4(3H)-one)] | 278 to 279 °C | 91.54 ± 0.56% | 97.83 ± 0.24% | 5.05 µM | 
Cc1nc2ccc(F)cc2c(=O)n1-c1ccc(-n2c(C)nc3ccc(F)cc3c2=O)cc1 [Compound 6d, 3,3′-(1,4-Phenylene)bis(6-fluoro-2-methylquinazolin-4(3H)-one)] | 269 to 272 °C | 82.7 ± 1.67% | 81.78 ± 0.45% | 4.54 µM | 
Cc1nc2ccc([N+](=O)[O-])cc2c(=O)n1-c1ccc(-n2c(C)nc3ccc([N+](=O)[O-])cc3c2=O)cc1 [Compound 6e, 3,3′-(1,4-Phenylene)bis(2-methyl-6-nitroquinazolin-4(3H)-one)] | 307 to 310 °C | 95.4 ± 0.24% | 97.6 ± 0.21% | 3.43 µM | 
Cc1nc2ccc([N+](=O)[O-])cc2c(=O)n1-c1ccc(S(=O)(=O)c2ccc(-n3c(C)nc4ccc([N+](=O)[O-])cc4c3=O)cc2)cc1 [Compound 7e, 3,3′-(Sulfonylbis(4,1-phenylene))bis(2-methyl-6-nitroquinazolin-4(3H)-one)] | 316 to 319 °C | 95.99 ± 0.14% | 96.76 ± 0.87% | 2.75 µM | approximately twice as potent as sorafenib
CNC(=O)c1cc(Oc2ccc(NC(=O)Nc3ccc(Cl)c(C(F)(F)F)c3)cc2)ccn1 [Sorafenib, sorafenib, reference compound] |  | 89.8 ± 1.14% | 91.2 ± 1.44% | 5.2 µM | 

Now from value to compound, other results behind:

melting point | Compound | inhibition [1, 2] | inhibition [1, 3] | IC50 [1] | potency against A549 relative to sorafenib ([1]; from IC50 values)
109 to 111 °C | Cc1nc2ccccc2c(=O)n1-c1ccccc1N |  |  |  | 
273 to 275 °C | Cc1nc2ccccc2c(=O)n1[C@H]1CC[C@H](n2c(C)nc3ccccc3c2=O)CC1 [Compound 3a, 3,3′-((1R,4R)-Cyclohexane-1,4-diyl)bis(2-methylquinazolin-4(3H)-one)] | 60.2 ± 1.56% | 97.2 ± 0.41% | 8.15 µM | 
311 to 313 °C | Cc1nc2ccc(Cl)cc2c(=O)n1[C@H]1CC[C@H](n2c(C)nc3ccc(Cl)cc3c2=O)CC1 [Compound 3c, 3,3′-((1R,4R)-Cyclohexane-1,4-diyl)bis(6-chloro-2-methylquinazolin-4(3H)-one)] | 61.1 ± 1.82% | 96.98 ± 0.4% | 8.14 µM | 
277 to 279 °C | Cc1nc2ccccc2c(=O)n1Cc1ccc(Cn2c(C)nc3ccccc3c2=O)cc1 [Compound 4a, 3,3′-(1,4-Phenylenebis(methylene))bis(2-methylquinazolin-4(3H)-one)] | 60.4 ± 3.31% | 62.9 ± 1.45% | 6.11 µM | 
327 to 330 °C | Cc1nc2ccc(Cl)cc2c(=O)n1Cc1ccc(Cn2c(C)nc3ccc(Cl)cc3c2=O)cc1 [Compound 4c, 3,3′-(1,4-Phenylenebis(methylene))bis(6-chloro-2-methylquinazolin-4(3H)-one)] | 79.5 ± 2.61% | 81.8 ± 0.87% | 6.07 µM | 
217 to 219 °C | Cc1nc2ccc(F)cc2c(=O)n1Cc1ccc(Cn2c(C)nc3ccc(F)cc3c2=O)cc1 [Compound 4d, 3,3′-(1,4-Phenylenebis(methylene))bis(6-fluoro-2-methylquinazolin-4(3H)-one)] | 94.29 ± 0.39% | 96.09 ± 0.244% | 5.55 µM | 
190 to 192 °C | Cc1nc2ccccc2c(=O)n1CCn1c(C)nc2ccccc2c1=O [Compound 5a, 3,3′-(Ethane-1,2-diyl)bis(2-methylquinazolin-4(3H)-one)] | 32.4 ± 2.91% | 88.7 ± 1.83% | 12.3 µM | 
211 to 212 °C | Cc1ccc2nc(C)n(CCn3c(C)nc4ccc(C)cc4c3=O)c(=O)c2c1 [Compound 5b, 3,3′-(Ethane-1,2-diyl)bis(2,6-dimethylquinazolin-4(3H)-one)] | 40 ± 2.11% | 89.7 ± 1.76% | 15.7 µM | 
244 to 246 °C | Cc1nc2ccc(Cl)cc2c(=O)n1CCn1c(C)nc2ccc(Cl)cc2c1=O [Compound 5c, 3,3′-(Ethane-1,2-diyl)bis(6-chloro-2-methylquinazolin-4(3H)-one)] | 61.9 ± 2.34% | 82.1 ± 1.93% | 7.98 µM | 
178 to 180 °C | Cc1nc2ccccc2c(=O)n1-c1ccc(-n2c(C)nc3ccccc3c2=O)cc1 [Compound 6a, 3,3′-(1,4-Phenylene)bis(2-methylquinazolin-4(3H)-one)] | 54.49 ± 0.27% | 90 ± 43% | 8.41 µM | 
263 to 265 °C | Cc1ccc2nc(C)n(-c3ccc(-n4c(C)nc5ccc(C)cc5c4=O)cc3)c(=O)c2c1 [Compound 6b, 3,3′-(1,4-Phenylene)bis(2,6-dimethylquinazolin-4(3H)-one)] | 59.2 ± 1.53% | 95.12 ± 0.22% | 8.13 µM | 
287 to 290 °C | Cc1nc2ccc(Cl)cc2c(=O)n1-c1ccc(-n2c(C)nc3ccc(Cl)cc3c2=O)cc1 [Compound 6c, 3,3′-(1,4-Phenylene)bis(6-chloro-2-methylquinazolin-4(3H)-one)] | 91.98 ± 0.49% | 98.02 ± 0.21% | 5.15 µM | 
294 to 297 °C | Cc1nc2ccccc2c(=O)n1-c1ccc(S(=O)(=O)c2ccc(-n3c(C)nc4ccccc4c3=O)cc2)cc1 [Compound 7a, 3,3′-(Sulfonylbis(4,1-phenylene))bis(2-methylquinazolin-4(3H)-one)] | 82.7 ± 1.63% | 82.1 ± 0.5% | 4.58 µM | 
310 to 313 °C | Cc1ccc2nc(C)n(-c3ccc(S(=O)(=O)c4ccc(-n5c(C)nc6ccc(C)cc6c5=O)cc4)cc3)c(=O)c2c1 [Compound 7b, 3,3′-(Sulfonylbis(4,1-phenylene))bis(2,6-dimethylquinazolin-4(3H)-one)] | 53.1 ± 2.2% | 86.8 ± 1.19% | 5.77 µM | 
332 to 335 °C | Cc1nc2ccc(Cl)cc2c(=O)n1-c1ccc(S(=O)(=O)c2ccc(-n3c(C)nc4ccc(Cl)cc4c3=O)cc2)cc1 [Compound 7c, 3,3′-(Sulfonylbis(4,1-phenylene))bis(6-chloro-2-methylquinazolin-4(3H)-one)] | 72.3 ± 0.78% | 88.43 ± 0.19% | 4.21 µM | 
301 to 303 °C | Cc1nc2ccc(F)cc2c(=O)n1-c1ccc(S(=O)(=O)c2ccc(-n3c(C)nc4ccc(F)cc4c3=O)cc2)cc1 [Compound 7d, 3,3′-(Sulfonylbis(4,1-phenylene))bis(6-fluoro-2-methylquinazolin-4(3H)-one)] | 96.46 ± 0.65% | 96.68 ± 0.17% | 3.45 µM | 
187 to 190 °C | Cc1nc2ccccc2c(=O)n1-c1ccccc1-n1c(C)nc2ccccc2c1=O [Compound 9, 3,3′-(1,2-Phenylene)bis(2-methylquinazolin-4(3H)-one)] |  |  |  | 
236 to 238 °C | Cc1nc2ccccc2c(=O)n1-c1cccc(-n2c(C)nc3ccccc3c2=O)c1 [Compound 11, 3,3′-(1,3-Phenylene)bis(2-methylquinazolin-4(3H)-one)] | 79.8 ± 1.05% | 83.2 ± 1.02% | 5.94 µM | 

Source: publication PMC6458391, “Deep eutectic solvent for an expeditious sono-synthesis of novel series of bis-quinazolin-4-one derivatives as potential anti-cancer agents” (Royal Society Open Science, 2019)
